The text below walks through data of patent publication US5593982A, “Cyclopentanperhydrophenanthren-17β-(3-furyl)-3-derivatives and pharmaceutical compositions comprising same for the treatment of cardiovascular disorders” (Sigma-Tau Industrie Farmaceutiche Riunite S.p.A., priority 1992, dated 1997).

Usually IC50 stands for the concentration that gives 50% inhibition.

Molecules are shown by their SMILES. Where a name gives a salt, the structure may show the parent alone. Read-outs that look alike come from different tables or passages of the source.

For assay [1], the target named is T1, Na^+,K^+ -ATPase receptor (Canis lupus familiaris, UniProt P50997).
T1 construct: from tissue; mammalian kidney outer medulla by the cited Jorgensen 1974 method (own knowledge)
Kind of assay: displacement of the specific 3H-ouabain binding from the purified Na+,K+-ATPase receptor. An excerpt:
(§1) To test the affinity for the receptor site of the Na^+,K^+ -ATPase and the agonist or antagonist activity on the enzyme, the following tests were used: a) displacement of the specific ^3 H-ouabain binding from the Na^+,K^+ -ATPase receptor purified according to Jorghensen (Jorghensen P., BBA, 1974, 356, 36) and Erdmann (Erdmann E. et al., Arzneim. Forsh., 1984, 34, 1314); b) inhibition of the activity of the purified Na^+,K^+ -ATPase measured as % of hydrolysis of ^32 P-ATP in presence and in absence of the tested compound (Mall F. et al., Biochem. Pharmacol., 1984, 33, 47).

In assay [2] the target is T2, purified Na^+,K^+ -ATPase (Canis lupus familiaris, UniProt P50997).
T2 construct: from tissue; mammalian kidney outer medulla by the cited Jorgensen 1974 method (own knowledge)
Kind of assay: inhibition of the activity of the purified Na+,K+-ATPase measured as % of hydrolysis of 32P-ATP. The assay is classed as biochemical.
Source text: as §1

The mark [3] stands for this setting: hydrolysis of 32P-ATP, purified Na+,K+-ATPase, read-out: Inhibitory Activity log IC50 (converted).
The mark [4] stands for this setting: displacement of specific 3H-ouabain binding, purified Na+,K+-ATPase, read-out: Binding 3H-Ouab. Displacement log IC50 (converted).

For the compound `CN(C)CCCOCCO[C@H]1CC[C@@]2(C)[C@H](CC[C@@H]3[C@@H]2CC[C@]2(C)[C@@H](c4ccoc4)CC[C@]32O)C1` [Comp. I-aj, 3β-(2-(3-Dimethylaminopropoxy)-ethoxy)-17β-(3-furyl)-5β-androstan-14β-ol], the IC50 was 0.158 µM in assay [1] and 1.26 µM in assay [2] (setting [3]).

For `C[C@]12CC[C@H](OCCCN3CCNCC3)C[C@H]1CC[C@@H]1[C@@H]2CC[C@]2(C)[C@@H](c3ccoc3)CC[C@]12O` [Comp. I-af, 3β-(3-(1-Piperazinyl)propoxy)-17β-(3-furyl)-5.β-androstan-14β-ol], the half-maximal inhibitory concentration (IC50) was 0.1 µM in assay [1] and 1.26 µM in assay [2] (setting [3]).

For the compound `C[C@]12CC[C@H](OCCN3CCCC3)C[C@@H]1CC[C@@H]1[C@@H]2CC[C@]2(C)[C@@H](c3ccoc3)CC[C@]12O` [Comp. I-ay, 3β-(2-(1-Pyrrolidinyl)ethoxy)-17β-(3-furyl)-5α-androstan-14β-ol], the IC50 in assay [1] was 0.398 µM; in assay [2], 3.16 µM.

With `C[C@]12CC[C@H](OCCN3CCCC3)C[C@H]1CC[C@@H]1[C@@H]2CC[C@]2(C)[C@@H](c3ccoc3)CC[C@]12O` [Comp. I-ad, 3β-(2-(1-Pyrrolydinyl)ethoxy)-17β-(3-furyl)-5β-androstan-14β-ol], the IC50 in assay [1] is 0.158 µM; in assay [2], 1 µM.

Consider `C[C@]12CC[C@H](OCCOCCCN3CCCC3)C[C@H]1CC[C@@H]1[C@@H]2CC[C@]2(C)[C@@H](c3ccoc3)CC[C@]12O` [Comp. I-da, 3β-(2-(3-(1-Pyrrolidinyl)propoxy)ethoxy)-17β-(3-furyl)-5β-androstan-14β-ol], for which the IC50 is 0.316 µM in assay [1] and 1.58 µM in assay [2].

For the compound `C[C@]12CC[C@H](OCCNCCCN3CCCC3)C[C@H]1CC[C@@H]1[C@@H]2CC[C@]2(C)[C@@H](c3ccoc3)CC[C@]12O` [Comp. I-db, 3β-(2-(3-(1-Pyrrolidinyl)propylamino)ethoxy)-17β-(3-furyl)-5β-androstan-14β-ol], the IC50 is 0.2 µM in assay [1] and 1.58 µM in assay [2].

Consider `C[C@]12CC[C@H](OCCN3CCCC3)C=C1CC[C@@H]1[C@@H]2CC[C@]2(C)[C@@H](c3ccoc3)CC[C@]12O` [Comp. I-au, 3β-(2-(1-Pyrrolidinyl)ethoxy)-17β-(3-furyl)-androst-4-en-14β-ol oxalate], for which the IC50 in assay [1] is 0.316 µM; in assay [2], 1.58 µM.

`C[C@]12CC[C@H](OCCOCCCN)C[C@H]1CC[C@@H]1[C@@H]2CC[C@]2(C)[C@@H](c3ccoc3)CC[C@]12O` [Comp. I-cx, 3β-(2-(3-Aminopropoxy)ethoxy)-17β-(3-furyl)-5β-androstan, 14β-ol]: the half-maximal inhibitory concentration (IC50) was 0.2 µM in assay [1] and 1.58 µM in assay [2].

With `C[C@]12CC[C@H](OCCN3CCCC3)C[C@H]1CC[C@@H]1[C@@H]2CC[C@]2(C)[C@@H](c3ccoc3)C[C@H]3O[C@]132` [Comp. I-ba, 3β-(2-(1-Pyrrolidinyl)ethoxy)-14β,15β-epoxy-17β-(3-furyl)-5β-androstane oxalate], the IC50 in assay [1] was 0.631 µM; in assay [2], 1.58 µM.

Turning to `C[C@]12CC[C@H](OCCN)C[C@H]1CC[C@@H]1[C@@H]2CC[C@]2(C)[C@@H](c3ccoc3)CC[C@]12O` [Comp. I-aa, 3β-(2-Aminoethoxy)-17β-(3-furyl)-5β-androstan-14β-ol], the results for the IC50 in assay [1] and in assay [2] were 0.158 µM and 0.501 µM, respectively.

Consider `C[C@]12CC[C@H](SCCN3CCOCC3)C[C@H]1CC[C@@H]1[C@@H]2CC[C@]2(C)[C@@H](c3ccoc3)CC[C@]12O` [Comp. I-bu, 3β-(2-(4-Morpholinoethylthio)-17β-(3-furyl)-5β-androstan-14β-ol oxalate], for which the half-inhibitory concentration (IC50) in assay [1] was 0.316 µM; in assay [2], 0.631 µM.

Consider `C[C@]12CC[C@H](SCCCN3CCNCC3)C[C@H]1CC[C@@H]1[C@@H]2CC[C@]2(C)[C@@H](c3ccoc3)CC[C@]12O` [Comp. I-bx, 3β-(3-(1-Piperazinyl)propylthio)-17β-(3-furyl)-5β-androstan-14β-ol dioxalate], for which the values for the IC50 in assay [1] and in assay [2] were 0.501 µM and 1 µM, respectively.

Consider `C[C@]12CC[C@H](OCCCCN)C[C@H]1CC[C@@H]1[C@@H]2CC[C@]2(C)[C@@H](c3ccoc3)CC[C@]12O` [Comp. I-ac, 3β-(4-Aminobutoxy)-17β-(3-furyl)-5β-androstan-14β-ol], for which the IC50 in assay [1] was 0.398 µM; in assay [2], 2 µM.

As to `C[C@]12CC[C@H](OCCN3CCCC3)C=C1CC[C@@H]1[C@@H]2CC[C@]2(C)[C@@H](c3ccoc3)C[C@H]3O[C@]132` [Comp. I-bc, 3β-(2-(1-Pyrrolidinyl)ethoxy)-14β,15β-epoxy-17β-(3-furyl)-androst-4-ene], the figures for the IC50 in assay [1] and in assay [2] were 0.316 µM and 2 µM, respectively.

Consider `C[C@]12CC[C@H](OCCOCC(N)CN)C[C@H]1CC[C@@H]1[C@@H]2CC[C@]2(C)[C@@H](c3ccoc3)CC[C@]12O` (stereo partly drawn) [Comp. I-cz, 3β-(2-(2,3-Diaminopropoxy)ethoxy)-17β-(3-furyl)-5β-androstan-14β-ol], for which the IC50 in assay [1] was 0.398 µM; in assay [2], 2 µM.

As to `C[C@]12CC[C@H](OCCCNC(=N)N)C[C@H]1CC[C@@H]1[C@@H]2CC[C@]2(C)[C@@H](c3ccoc3)CC[C@]12O` [Comp. I-am, 3β-(3-Guanidinopropxy)-17β-(3-furyl)-5β-androstan-14β-ol nitrate], the IC50 in assay [1] was 0.2 µM; in assay [2], 3.16 µM.

For the compound `C[C@]12CC[C@H](OCCCN)C=C1CC[C@@H]1[C@@H]2CC[C@]2(C)[C@@H](c3ccoc3)CC[C@]12O` [Comp. I-at, 3β-(3-Aminopropoxy)-17β-(3-furyl)-androst-4-en-14β-ol], the IC50 in assay [1] (setting [4]) was 0.631 µM; in assay [2], 2.51 µM.

As for `C[C@]12CC[C@H](OCC(CN3CCCC3)N3CCCC3)C[C@H]1CC[C@@H]1[C@@H]2CC[C@]2(C)[C@@H](c3ccoc3)CC[C@]12O` (stereo partly drawn) [Comp. I-ap, 3β-(2,3-Bis(1-pyrrolidinyl)propoxy)-17β-(3-furyl)-5β-androstan-14β-ol], the figures for the 50% inhibitory concentration (IC50) in assay [1] and in assay [2] were 0.398 µM and 1.58 µM, respectively.

As for `C[C@]12CC[C@H](SCCCN)C[C@H]1CC[C@@H]1[C@@H]2CC[C@]2(C)[C@@H](c3ccoc3)C[C@H]3O[C@]132` [Comp. I-cj, 3β-(3-Aminopropylthio)-14β,15β-epoxy-17β-(3-furyl)-5β-androstane oxalate], the concentration for half-maximal inhibition (IC50) is 2 µM in assay [1] and 6.31 µM in assay [2].

In the case of `C[C@]12CC[C@H](OCCCN)CC1=CC[C@@H]1[C@@H]2CC[C@]2(C)[C@@H](c3ccoc3)CC[C@]12O` [Comp. I-av, 3β-(3-Aminopropoxy)-17β-(3-furyl)-androst-5-en-14β-ol], the half-maximal inhibitory concentration (IC50) was 0.631 µM in assay [1] (setting [4]) and 2.51 µM in assay [2].

In the case of `CNCCO[C@H]1CC[C@@]2(C)[C@H](CC[C@@H]3[C@@H]2CC[C@]2(C)[C@@H](c4ccoc4)CC[C@]32O)C1` [Comp. I-an, 3β-(2-Methylaminoethoxy)-17β-(3-furyl)-5β-androstan-14β-ol], the IC50 was 0.2 µM in assay [1] and 1.58 µM in assay [2].

In the case of `C[C@]12CC[C@H](OCCOCC(O)CN)C[C@H]1CC[C@@H]1[C@@H]2CC[C@]2(C)[C@@H](c3ccoc3)CC[C@]12O` (stereo partly drawn) [Comp. I-cy, 3β-(2-(3-Amino-2-hydroxypropoxy)ethoxy)-17β-(3-furyl)-5β-androstan-14β-ol], the IC50 is 0.398 µM in assay [1] and 1.58 µM in assay [2].

Consider `C[C@]12CC[C@H](SCCN3CCCC3)C=C1CC[C@@H]1[C@@H]2CC[C@]2(C)[C@@H](c3ccoc3)CC[C@]12O` [Comp. I-ce, 3β-(2-(1-Pyrrolidinyl)ethylthio)-17β-(3-furyl)-androst-4-en-14β-ol oxalate], for which the IC50 was 1 µM in assay [1] and 3.16 µM in assay [2].

As to `C[C@]12CC[C@H](OCCN3CCCC3)CC1=CC[C@@H]1[C@@H]2CC[C@]2(C)[C@@H](c3ccoc3)CC[C@]12O` [Comp. I-aw, 3β-(2-(1-Pyrrolidinyl)ethoxy)-17β-(3-furyl)-androst-5-en--14β-ol], the IC50 in assay [1] was 1.58 µM; in assay [2] (setting [3]), 6.31 µM.

As for `C[C@]12CC[C@H](OCCOCCN3CCCC3)C[C@H]1CC[C@@H]1[C@@H]2CC[C@]2(C)[C@@H](c3ccoc3)CC[C@]12O` [Comp. I-ah, 3β-(2-(2-(1-Pyrrolidinyl)ethoxy)ethoxy)-17β-(3-furyl)-5β-androstan-14β-ol], the IC50 in assay [1] is 0.158 µM; in assay [2], 0.794 µM.

Turning to `CO[C@]12CC[C@H](c3ccoc3)[C@@]1(C)CC[C@H]1[C@H]2CC[C@@H]2C[C@@H](OCCN3CCCC3)CC[C@@]21C` [Comp. I-as, 3β-(2-(1-Pyrrolydinyl)ethoxy)-14β-methoxy-17β-(3-furyl)-5β-androstane oxalate], the values for the IC50 in assay [1] (setting [4]) and in assay [2] (setting [3]) were 5.01 µM and 25.1 µM, respectively.

Consider `C[C@]12CC[C@H](OCC[N+]3(C)CCCC3)C[C@H]1CC[C@@H]1[C@@H]2CC[C@]2(C)[C@@H](c3ccoc3)CC[C@]12O` [Comp. I-ak, 3β-(2-(N-methyl-1-pyrrolydinium)ethoxy)-17β-(3-furyl)-5β-androstan-14β-ol iodide], for which the results for the concentration for half-maximal inhibition (IC50) in assay [1] and in assay [2] (setting [3]) were 0.158 µM and 1.26 µM, respectively.

On to `C[C@]12CC[C@H](OCC(N)CN)C[C@H]1CC[C@@H]1[C@@H]2CC[C@]2(C)[C@@H](c3ccoc3)CC[C@]12O` (stereo partly drawn) [Comp. I-ao, 3β-(2,3-Diaminopropoxy)-17β-(3-furyl)-5β-androstan-14β-ol], for which the IC50 in assay [1] was 0.316 µM; in assay [2] it was 1.58 µM.

As to `CO[C@]12CC[C@H](c3ccoc3)[C@@]1(C)CC[C@H]1[C@H]2CC[C@@H]2C[C@@H](OCCCN)CC[C@@]21C` [Comp. I-ar], the 50% inhibitory concentration (IC50) in assay [1] (setting [4]) is 3.16 µM; in assay [2] (setting [3]), 25.1 µM.
